Assay results as given in patent US10254285B2, “Methods for detecting and treating cancer metastasis” (Cedars-Sinai Medical Center, priority 2013, dated 2019).

Tests used:
WPMY-1 cells = experiment: Uptake of PKH26-labeled large oncosomes (LO) by recipient cells, FACS / fluorescent imaging; assay type: cell-based, human; conditions: WPMY-1 cells treated with PKH26-labeled LO for 1 h at 37° C. in presence of the compound
Procedure: As shown in FIG. 23 LO internalization differs between cells. LO isolation was performed using a filtration approach where the larger vesicles are retained by the filter and the smaller ones flow through. To test LO uptake, LO were labeled with a lipophilic dye, PKH26 and then used to treat target cells for 1 h at 37° C. LO uptake levels have been measured as the acquisition of fluorescence by target cells either by FACS or confocal imaging.
LO isolation was preformed using a filtration approach where the larger vesicles are retained by the filter and the smaller ones flow through. To test LO uptake LO were labeled with a lipophilic dye, PKH26 and then used to treat target cells for 1 h at 37° C. or 4° C. in presence or absence of the indicated compounds. LO uptake levels were measured as the acquisition of fluorescence by target cells either by FACS and fluorescent imaging. Dynamin2 silencing has been performed by transient transfection of WPMY-1 cells with an oligos against Dynamin2.

c-Myc = experiment: Luciferase reporter assay for c-Myc promoter activation in NAF; assay type: cell-based; conditions: NAF exposed to LO (20 μg/ml) in presence of Dyn (20 μM)
Procedure: LO and Exo isolation was performed by differential high-speed centrifugation (10,000×g and 100,000×g) followed discontinuous density gradient centrifugation. Conditioned media from LNCaPMyrAkt1 was used as source for LO and Exo. Nuclear extract from WPMY-1 cells treated with LO for the indicated time was used to perform the transcription factor activation profiling array from Signosis. Luciferase reporter assay for c-Myc promoter activation has been performed in NAF transfected with c-Myc promoter or vector plasmid treated with either LO or Exo 20 μg/ml for 6 h. RT-qPCR for c-Myc target cells in NAF treated with either LO or Exo 20 μg/ml for 6 h or 24 h.
LO and Exo isolation was performed by differential high-speed centrifugation (10,000×g and 100,000×g) followed by discontinuous density gradient centrifugation. Conditioned media from LNCaPMyrAkt1 was used as source for LO and Exo. […] After for 6 h-8 h tube formation rate is recorded by imaging, and quantified by counting the branching points in randomly chosen fields from each condition.

HUVEC = experiment: Tube formation assay in endothelial cells; assay type: cell-based; conditions: HUVECs treated with LO (20 μg/ml) in presence of Dyn
Procedure: (§1) LO and Exo isolation was performed by differential high-speed centrifugation (10,000×g and 100,000×g) followed by discontinuous density gradient centrifugation. Conditioned media from LNCaPMyrAkt1 was used as source for LO and Exo. Tube formation assay in endothelial cells, HUVEC treated with LO or Exo 20 μg/ml directly or with conditioned media from NAF previously exposed to either LO or Exo. After 6 h-8 h tube formation rate is recorded by imaging, and quantified by counting the branching points in randomly chosen fields from each condition.
as §1, with “Exo. Luciferase reporter assay for c-Myc promoter activation was performed in NAF transfected with c-Myc promoter or vector plasmid treated with either LO or Exo 20 μg/ml for 6 h in presence or absence of Dynasore 20 nM.” for “Exo.”, “directly in presence” for “directly”, “absence of Dynasore 20 nM.” for “with conditioned media from NAF previously exposed to either LO or Exo.”, “After for” for “After”

Row | Compound | LO uptake (internalization, mean fluorescent intensity) (WPMY-1 cells) | LO uptake (internalization, mean fluorescent intensity) (WPMY-1 cells; listed as Dyn) | c-Myc activation induced by LO (luciferase reporter) (c-Myc) | tube formation (HUVEC)
1 | C=C1[C@@H](C)[C@H]2[C@H](Cc3ccccc3)NC(=O)[C@]23[C@H](OC(C)=O)/C=C/[C@@](C)(O)C(=O)[C@@H](C)C/C=C/[C@H]3[C@@H]1O [cytochalasin D] | partially reduced | – | – | –
2 | O=C(N/N=C/c1ccc(O)c(O)c1)c1cc2ccccc2cc1O [dynasore] | significantly reduced | inhibited | reverted | significantly inhibited
